Consider 50 substances from patent publication US20240393292A1, “ALLERGY ANTIGEN AND EPITOPE THEREOF” (HOYU CO., LTD., priority 2019, published 2024).

This experiment has as its system IgE antibodies from patients. The experiment is described as follows: Wheat epitope mapping (2): overlapping 10-amino-acid peptide fragments shifted by one amino acid. The class given is binding, human. To be noted: sequence without X. How it is done:
The peptides to be synthesized were shifted by one amino acid.
The library was prepared by the same procedure as described above in (A), and the presence or absence of binding of an IgE antibody present in the serum of a patient to each peptide fragment was measured by the same technique as described above. Numeric values determined from images obtained as a result of carrying out only the procedures (1) and (4) to (6) described above in the subsection titled (3) Spotting of cellulose-bound peptide solution were used as control values. The control value of each peptide was subtracted from numeric values determined from images obtained from results about the serum of patients, and the obtained value of the difference was compared with values of the peptides serving as the basis of overlapping.
Chemiluminescence intensity in images obtained by measurement was converted into a numeric value in the same manner as in (A). Numeric values determined from images obtained as a result of carrying out only the procedures (1) and (4) to (6) described above in the subsection titled (3) Spotting of cellulose-bound peptide solution (secondary antibody measurement values) were used as control values. The control value of each peptide was subtracted from numeric values determined from images obtained from results about the serum of patients. When values obtained using the sequences (SEQ ID NOs: 29, 131, 191, 281, 346, 414, 493, 562, 640, 706, 776, 899, 974, 1010, 1089, 1142, 1166, 1209, 1257, 1297, 1367, 1403, 1508, 1566, 1598, 1608, 1685, 1753, 1789, 1836, 1895, 1977, 2004, 2027, 2068, 2154, 2217, 2265, 2309, 2342, 2419, 2491, 2545, 2613, 2631, 2674, 2701, 2774, 2809 and 2830) serving as the basis of overlapping were defined as 100%, it was determined that: a peptide having a value of the difference that was less than 30% had no binding activity against IgE antibodies; a peptide having a value of the difference that was 30% or more and less than 50% had binding activity, albeit poor, against IgE antibodies; a peptide having a value of the difference that was 50% or more and less than 70% had binding activity, albeit somewhat poor, against IgE antibodies; and a peptide having a value of the difference that was 70% or more had equivalent or good binding activity against IgE antibodies and was thus a peptide had remaining binding activity against IgE antibodies.

With “1162 (SIDQNAQG; REGION 1..8: note = epitope) [compound 1162]”, the “Epitope sequence binding to IgE antibody, rank of the sequence” value (serum of patient G7 (adult, general immediate type allergy to wheat)) was “Further preferably”.
On to “1168 (PGQQQQFPPQ; REGION 1..10: note = epitope) [compound 1168]”, for which the “Epitope sequence binding to IgE antibody, rank of the sequence” value (serum of patient P3 (WDEIA)) is listed as “Preferably”.
As to “1170 (FPPQQP; REGION 1..6: note = epitope) [compound 1170]”, the “Epitope sequence binding to IgE antibody, rank of the sequence” value (serum of patient P3 (WDEIA)) is listed as “Key”.
With “1173 (QQQQFPPQQP; REGION 1..10: note = epitope) [compound 1173]”, where the note is “serum of patient P7 (WDEIA)”, the “Epitope sequence binding to IgE antibody, rank of the sequence” value is on record as “Preferably”.
For the substance “1176 (QQFPPQQ; REGION 1..7: note = epitope) [compound 1176]”, the “Epitope sequence binding to IgE antibody, rank of the sequence” value (serum of patient P8 (WDEIA)) is reported as “Preferably”.
Take “1177 (QQFPPQ; REGION 1..6: note = epitope) [compound 1177]”: where the note is “serum of patient P8 (WDEIA)”, the “Epitope sequence binding to IgE antibody, rank of the sequence” value is listed as “Key”.
On to “1179 (QQFPPQQ; REGION 1..7: note = epitope) [compound 1179]”, for which the “Epitope sequence binding to IgE antibody, rank of the sequence” value (serum of patient P12 (WDEIA)) is recorded as “Preferably”.
In the case of “1180 (QQFPP; REGION 1..5: note = epitope) [compound 1180]”, under “serum of patient P12 (WDEIA)”, the “Epitope sequence binding to IgE antibody, rank of the sequence” value is “Key”.
As for “1183 (QQFPPQQ; REGION 1..7: note = epitope) [compound 1183]”, the “Epitope sequence binding to IgE antibody, rank of the sequence” value (serum of patient P14 (WDEIA)) is given as “Key”.
As to “1185 (QQFPPQQP; REGION 1..8: note = epitope) [compound 1185]”, the “Epitope sequence binding to IgE antibody, rank of the sequence” value (serum of patient P19 (WDEIA)) was “Key”.
On to “1188 (QQFPPQQ; REGION 1..7: note = epitope) [compound 1188]”, for which, under “serum of patient P21 (WDEIA)”, the “Epitope sequence binding to IgE antibody, rank of the sequence” value was “Preferably”.
With “1189 (QQFPPQ; REGION 1..6: note = epitope) [compound 1189]”, the “Epitope sequence binding to IgE antibody, rank of the sequence” value (serum of patient P21 (WDEIA)) is “Key”.
Regarding “1190 (QQFPPQQPYP; REGION 1..10: note = epitope) [compound 1190]”, the “Epitope sequence binding to IgE antibody, rank of the sequence” value (serum of patient P21 (WDEIA)) is “Key”.
For “1194 (QQQQFPPQ; REGION 1..8: note = epitope) [compound 1194]”, the “Epitope sequence binding to IgE antibody, rank of the sequence” value (serum of patient P22 (WDEIA)) is listed as “Key”.
For “1195 (QFPPQQPYPQ; REGION 1..10: note = epitope) [compound 1195]”, the “Epitope sequence binding to IgE antibody, rank of the sequence” value (serum of patient P22 (WDEIA)) was “Key”.
Turning to “1200 (QQFPGQQQQ; REGION 1..9: note = epitope) [compound 1200]”, the “Epitope sequence binding to IgE antibody, rank of the sequence” value (serum of patient P28 (WDEIA)) was “Key”.
In the case of “1206 (QQFPPQQP; REGION 1..8: note = epitope) [compound 1206]”, the “Epitope sequence binding to IgE antibody, rank of the sequence” value (serum of patient P34 (WDEIA)) is on record as “Preferably”.
With “1207 (FPPQQ; REGION 1..5: note = epitope) [compound 1207]”, where the note is “serum of patient P34 (WDEIA)”, the “Epitope sequence binding to IgE antibody, rank of the sequence” value was “Key”.
Regarding “1208 (QQFPPQQ; REGION 1..7: note = epitope) [compound 1208]”, the “Epitope sequence binding to IgE antibody, rank of the sequence” value (serum of patient P35 (WDEIA)) is recorded as “Key”.
Consider “1210 (PIQQQP; REGION 1..6: note = epitope) [compound 1210]”, for which, where the note is “serum of patient P2 (WDEIA)”, the “Epitope sequence binding to IgE antibody, rank of the sequence (Key/Preferably/More preferably/Further preferably)” value is listed as “Preferably”.
As for “1213 (PIQQQPQPFP; REGION 1..10: note = epitope) [compound 1213]”, for the setting “serum of patient P7 (WDEIA)”, the “Epitope sequence binding to IgE antibody, rank of the sequence” value is recorded as “Preferably”.
Consider “1216 (PQQPP; REGION 1..5: note = epitope) [compound 1216]”, for which the “Epitope sequence binding to IgE antibody, rank of the sequence” value (serum of patient P7 (WDEIA)) was “Preferably”.
Take “1218 (PIQQQP; REGION 1..6: note = epitope) [compound 1218]”: the “Epitope sequence binding to IgE antibody, rank of the sequence” value (serum of patient P9 (WDEIA)) was “Preferably”.
With “1220 (IQQQP; REGION 1..5: note = epitope) [compound 1220]”, the “Epitope sequence binding to IgE antibody, rank of the sequence” value (serum of patient P9 (WDEIA)) is “Key”.
In the case of “1221 (PIQQQPQPF; REGION 1..9: note = epitope) [compound 1221]”, the “Epitope sequence binding to IgE antibody, rank of the sequence” value (serum of patient P10 (WDEIA)) is listed as “Preferably”.
For “1223 (IQQQP; REGION 1..5: note = epitope) [compound 1223]”, the “Epitope sequence binding to IgE antibody, rank of the sequence” value (serum of patient P10 (WDEIA)) was “Key”.
Consider “1225 (QQPIQQQP; REGION 1..8: note = epitope) [compound 1225]”, for which the “Epitope sequence binding to IgE antibody, rank of the sequence” value (serum of patient P12 (WDEIA)) is reported as “Preferably”.
As to “1226 (PIQQQP; REGION 1..6: note = epitope) [compound 1226]”, where the note is “serum of patient P12 (WDEIA)”, the “Epitope sequence binding to IgE antibody, rank of the sequence” value is on record as “Key”.
As to “1227 (PQQPPC; REGION 1..6: note = epitope) [compound 1227]”, the “Epitope sequence binding to IgE antibody, rank of the sequence” value (serum of patient P12 (WDEIA)) was “Key”.
Consider “1229 (PIQQQP; REGION 1..6: note = epitope) [compound 1229]”, for which the “Epitope sequence binding to IgE antibody, rank of the sequence” value (serum of patient P13 (WDEIA)) is “Preferably”.
On the same count and under the same terms, the result for “1231 (PQQPP; REGION 1..5: note = epitope) [compound 1231]” reads “Key”.
For “1234 (PQQPP; REGION 1..5: note = epitope) [compound 1234]”, the “Epitope sequence binding to IgE antibody, rank of the sequence” value (serum of patient P14 (WDEIA)) is listed as “Key”.
For “1235 (PQQPP; REGION 1..5: note = epitope) [compound 1235]”, for the setting “serum of patient P17 (WDEIA)”, the “Epitope sequence binding to IgE antibody, rank of the sequence” value is reported as “Key”.
As for “1236 (PQQPP; REGION 1..5: note = epitope) [compound 1236]”, under “serum of patient P21 (WDEIA)”, the “Epitope sequence binding to IgE antibody, rank of the sequence” value is “Key”.
Take “1239 (QQQPIQQQP; REGION 1..9: note = epitope) [compound 1239]”: the “Epitope sequence binding to IgE antibody, rank of the sequence” value (serum of patient P24 (WDEIA)) is recorded as “Preferably”.
As to “1241 (PIQQQP; REGION 1..6: note = epitope) [compound 1241]”, the “Epitope sequence binding to IgE antibody, rank of the sequence” value (serum of patient P26 (WDEIA)) was “Key”.
On the same count and under the same terms, the result for “1242 (PQQPPC; REGION 1..6: note = epitope) [compound 1242]” reads “Preferably”; that for “1243 (PQQPP; REGION 1..5: note = epitope) [compound 1243]”, “Key”.
For “1244 (PIQQQP; REGION 1..6: note = epitope) [compound 1244]”, the “Epitope sequence binding to IgE antibody, rank of the sequence” value (serum of patient P31 (WDEIA)) is on record as “Key”.
Turning to “1245 (PQQPPC; REGION 1..6: note = epitope) [compound 1245]”, the “Epitope sequence binding to IgE antibody, rank of the sequence” value (serum of patient P31 (WDEIA)) was “Preferably”.
Same read-out and setting: the result for “1246 (PQQPP; REGION 1..5: note = epitope) [compound 1246]” reads “Key”.
Take “1247 (PIQQQP; REGION 1..6: note = epitope) [compound 1247]”: where the note is “serum of patient P32 (WDEIA)”, the “Epitope sequence binding to IgE antibody, rank of the sequence” value is listed as “Key”.
On the same count and under the same terms, the result for “1248 (PQQPP; REGION 1..5: note = epitope) [compound 1248]” reads “Key”.
As for “1249 (QQPIQQQP; REGION 1..8: note = epitope) [compound 1249]”, the “Epitope sequence binding to IgE antibody, rank of the sequence” value (serum of patient P33 (WDEIA)) is “Key”.
Consider “1250 (PQQPP; REGION 1..5: note = epitope) [compound 1250]”, for which, for the setting “serum of patient P33 (WDEIA)”, the “Epitope sequence binding to IgE antibody, rank of the sequence” value is given as “Key”.
Take “1252 (PQQPP; REGION 1..5: note = epitope) [compound 1252]”: the “Epitope sequence binding to IgE antibody, rank of the sequence” value (serum of patient P35 (WDEIA)) is listed as “Key”.
On to “1253 (PIQQQPQPFP; REGION 1..10: note = epitope) [compound 1253]”, for which the “Epitope sequence binding to IgE antibody, rank of the sequence” value (serum of patient P36 (WDEIA)) is given as “Preferably”.
For the substance “1254 (PIQQQP; REGION 1..6: note = epitope) [compound 1254]”, where the note is “serum of patient P36 (WDEIA)”, the “Epitope sequence binding to IgE antibody, rank of the sequence” value is listed as “Key”.
On to “1255 (PQQPPC; REGION 1..6: note = epitope) [compound 1255]”, for which the “Epitope sequence binding to IgE antibody, rank of the sequence” value (serum of patient P36 (WDEIA)) is listed as “Preferably”.
As for “1256 (PQQPP; REGION 1..5: note = epitope) [compound 1256]”, the “Epitope sequence binding to IgE antibody, rank of the sequence” value (serum of patient P36 (WDEIA)) is “Key”.
